# In patent US20050148495A1, “Methods and materials including for treating acne” (priority 2003, published 2005):
# Where two headings read alike, the source gives them in different places. Non-standard residues stand in square brackets, D forms with d. Residues, ends and D or L forms follow the SMILES beside them. d1Nal = N[C@H](Cc1cccc2ccccc12)C(=O)O
# Columns and labels:
# [1] = tested on: Candida; format: cell-based
# Experimental: (§1) Control tubes containing only water or formulation buffer were prepared for each isolate. Initial growth controls were determined by removing 10 μL from the water control tube and diluting it by 100 fold. From this dilution, 10 μL was used for inoculation and for spreading over the surface onto Laked Blood Agar (LBA) (Anaerobe Systems, Morgan Hill, Calif.) plates. The tubes and plates were incubated in an anaerobic atmosphere at 37° C. for 48 h. […] MBC50 and 90 values represent where 50 and 90%, respectively, of the tested strain's MBC values are equal to or less than the indicated concentration.
# [2] = tested on: polychromatic erythrocyte (PCE) cells in mouse bone marrow; experiment: Mouse bone marrow micronucleus assay; format: in vivo, Crl:CD-1(ICR) BR mouse
# Experimental: XMP.629 was next evaluated for in vivo clastogenic activity and/or disruption of mitotic apparatus by detecting micronuclei in polychromatic erythrocyte (PCE) cells in Crl:CD-1®(ICR) BR mouse bone marrow. The assay design was based on OECD Guideline 474, updated and adopted Jul. 21, 1997. In this micronucleus assay, XMP.629 was formulated in 10 mM sodium acetate buffer (pH 6.0) and dosed by intraperitoneal injection to six males per dose level at each scheduled harvest timepoint. The dose levels were 2, 4, or 8 mg/kg. Five animals dosed with XMP.629 at 2 or 4 mg/kg and five animals dosed with a positive control were euthanized approximately 24 hours after dosing for extraction of the bone marrow. Five animals per harvest timepoint dosed with XMP.629 at 8 mg/kg and five animals per harvest timepoint dosed with the vehicle control article were euthanized approximately 24 or 48 hours after dosing for extraction of the bone marrow. This micronucleus test can serve as a rapid screen for compounds which interfere with normal mitotic cell division (Schmid, 1975, Mutat. Res. 31: 9-15; Heddle et al., 1983, Mutat. Res. 123: 61-118; Heddle et al., 1991, Env. And Mol. Mutagen. 18: 277-291). At least 2000 PCEs per animal were analyzed for the frequency of micronuclei. Cytotoxicity was assessed by scoring the number of PCEs and normochromatic erythrocytes (NCEs) in at least the first 500 erythrocytes for each avenal. […] Therefore, XMP.629 was determined to be negative in the mouse bone marrow micronucleus assay.
# [3] = tested on: P. aeruginosa; format: cell-based, Pseudomonas aeruginosa
# Experimental: as §1
# [4] = in vivo; settings: both, rat, plasma, po, 10 mg/kg, mean; for bioavailability: % F (bioavailability); for AUC: AUCall
# [5] = tested on: guinea pigs, Crl:(HA)BR (Albino Hartley); experiment: Guinea pig sensitization (maximization) test; format: in vivo
# Experimental: A sensitization (maximization) study was performed to evaluate the potential of XMP.629 to elicit skin sensitization reactions, such as allergic contact dermatitis, in guinea pigs via intradermal injection and topical patch applications. Procedures for conducting dermal studies that determine the potential of substances to induce delayed contact hypersensitivity are well-known and are described, for example, in Magnusson, B. et al., Allergic Contact Dermatitis in the Guinea Pig, Charles C. Thomas Publishing, Springfield, Ill., 1970 and Klecak, G., “Test Methods for Allergic Contact Dermatitis in Animals”, Dermatoxicology, 5th Edition, Taylor & Francis Publishing, Washington D.C., pages 437-459, the disclosures of which are incorporated herein by reference. A total of forty two-month old guinea pigs, twenty male and twenty female, from the strain CrI:(HA)BR(Albino Hartley) were employed for the entire regimen of the sensitization study.
# First, a preliminary range-finding test was conducted to determine the test concentration of XMP.629 to be used in the second test, induction phase intradermal injection and topical patch application tests. The range-finding test was performed (i) intradermally on two guinea pigs (one male and one female) by injecting concentrations of 2, 4, 8, 16, and 20 mg/mL XMP.629; and (ii) topically on three guinea pigs (two males and one female) by administering patches containing concentrations of 5, 10, 15, and 20 mg/mL XMP.629. […] Topical patches were prepared by spreading a thick even layer of 0.4 mL of XMP.629 over a 2×2 cm of Whatman No.3 filter paper. Topical patches were applied to the torso of the guinea pig and covered by an overlapping plastic adhesive tape followed by additional wrapping tape. After a 24 hour exposure period, the patches were removed and the application sites were washed to removed any excess XMP.629 that may be present. […] Intradermal injection sites and topical application sites were evaluated using a sensitization grade rating. […] Each site could attain a maximum possible score of 3, as scored according to the rating listed below: • 0=No reaction • 1=Scattered mild erythema • 2=Moderate and diffuse erythema • 3=Intense erythema and edema
# The second induction phase test was conducted as a two-stage operation with intradermal injections initially being administered followed one week later by exposure to a closed patch. […] Following a period of 24 and 48 hours, evaluations of the injection area were recorded. […] Dermal irritation scores of one or higher were recorded for doses of 8 mg/mL of XMP.629.
# A third, challenge (maximization) test was performed two weeks (day 22) after initiation of the second, induction phase tests. […] Patches were sealed to the flanks for approximately 24 hours before observations were recorded.
# [6] = [3H]-labeled XMP.629, 0.3 mg/kg intravenous, estimate
# [7] = 10 mg/kg XMP.629 acetate oral gavage in 5% glucose
# [8] = 10 mg/kg XMP.629 acetate oral gavage in distilled water
compound,measurement,setting,value
"CC(C)C[C@@H](NC(=O)[C@H](N)CCCCN)C(=O)N[C@H](Cc1ccccc1)C(=O)N[C@H](CCCNC(=N)N)C(=O)N[C@H](Cc1cccc2ccccc12)C(=O)N[C@H](CCC(N)=O)C(=O)N[C@H](C)C(=O)N[C@H](CCCCN)C(=O)N[C@H](Cc1cccc2ccccc12)C(N)=O [XMP.629, NH2-lys-leu-phe-arg-(3-(1-naphthyl)-ala)-gln-ala-lys-(3-(1-naphthyl)-ala)-CONH2] (H-[dK][dL][dF][dR][d1Nal][dQ][dA][dK][d1Nal]-NH2)","MIC90, XMP.629 data reported as MBC values",[1],1 µg/mL
same,"MIC90, XMP.629 data reported as MBC values",[1]; in FB (formulation buffer),0.5 µg/mL
same,mouse bone marrow micronucleus assay result,"[2]; 2, 4, or 8 mg/kg intraperitoneal",negative
same,cytotoxicity to the bone marrow (PCE:NCE ratios),[2]; any dose level tested,not cytotoxic to the bone marrow
same,signs of clinical toxicity,[2]; up to 8 mg/kg,did not induce any signs of clinical toxicity
same,"MIC90, XMP.629 data reported as MBC values",[3],32 µg/mL
same,"MIC90, XMP.629 data reported as MBC values",[3]; in FB (formulation buffer),0.5 µg/mL
same,bioavailability,[4]; [7],0.0044%
same,bioavailability,[4]; [8],0.0015%
same,AUC,[4]; [7],1.67 ng·h/mL
same,AUC,[4]; [8],0.55 ng·h/mL
same,Cmax,[4]; [7],4.6 ng/mL
same,Cmax,[4]; [8],1.5 ng/mL
same,Tmax,[4]; [7],11.4 min
same,Tmax,[4]; [8],8.4 min
same,"skin sensitization, overall","[5]; 10 mM sodium acetate solution, topical patch challenge",weak skin sensitizing response
same,Dermal irritation scores,[5]; doses of 8 mg/mL,one or higher
same,highest non-irritating dose,[5]; induction phase tests,4 mg/mL
same,challenge phase score,[5]; topical patch 4 mg/mL,did not score higher than one
same,CL (clearance),"[6]; male Sprague-Dawley rats, three compartment model",358.7 g plasma/hr/kg
same,C0 (extrapolated plasma concentration at time 0),[6]; rat,2.49 μg equivalents/g
same,Vc (volume of distribution of the central compartment),[6]; rat,0.121 L/kg
same,Vss (volume of distribution at steady state),[6]; rat,1.657 L/kg
same,t1/2 (average half-life),[6]; rat,13.8 min
same,t1/2α (α half-life),[6]; rat,1.92 min
same,t1/2β (β half-life),[6]; rat,46.2 min
same,t1/2γ (γ half-life),[6]; rat,498 min
